The values that follow come from publication doi:10.1101/2025.03.14.643404, “A Bivalent Molecular Glue Linking Lysine Acetyltransferases to Oncogene-induced Cell Death” (bioRxiv, 2025).

Experiment [1] relates to BCL6-repressed GFP reporter. The experiment in a line: BCL6 reporter assay (BCL6-repressed GFP) in K422 cells. The experiment is classed as cell-based, human. As to conditions: 24 h, highest GFP signal. The procedure: KARPAS422 cells were lentivirally transduced with a construct containing the reporter. Description of the reporter construct has been published previously. After selection, cells were plated and treated with indicated amount of compound for 24 hours. Cells were washed in 2.5% FBS/PBS, stained with 1:250 v/v of 7-AAD (BD 559925) to distinguish live from dead cells, and harvested for flow cytometry on a BD Accuri. Given the polyclonal population after transduction, the area under the curve of the histogram representing FITC signal across all live cells was calculated as an integrative measure of total GFP signal. A GFP-positive gate two standard deviations from the mean was drawn from non-transduced cells and the area past a constant threshold was calculated and normalized to the signal from cells treated with DMSO.
Background: Reporter assays use an easily measured gene product as a stand-in for the process of interest.

In a further experiment the test system is H2BK20ac. The experiment is described as follows: ChIP-seq for H2BK20ac in SUDHL5. The experiment is classed as cell-based, human. As to conditions: SUDHL5, 1 nM, 1 hour. The procedure:
25–30 million cells were treated with TCIP3 or DMSO for indicated timepoints. Cells were washed in PBS containing TCIP3 or DMSO and crosslinked for 11 min in CiA Fix Buffer (50 mM HEPES pH 8.0, 1 mM EDTA, 0.5 mM EGTA, 100 mM NaCl) with addition of formaldehyde to a final concentration of 1%. The crosslinking reaction was quenched by glycine added at 0.125 M final concentration. Crosslinked cells were centrifuged at 1,000 × g for 5 min. […] Library size distributions were confirmed using an Agilent Bioanalyzer and High Sensitivity DNA reagents (Agilent 5067) and concentrations determined by qPCR. […]
The data quality was checked using fastq (https://www.bioinformatics.babraham.ac.uk/projects/fastqc/). The raw reads were trimmed from adapters with cutadapt (parameters: -a […] -A […]) and raw reads were aligned to hg38 human genome assembly using bowtie2 (parameters: --local --maxins 1000). Low quality reads, duplicated reads and reads with multiple alignments were removed using samtools[120] and Picard (https://broadinstitute.github.io/picard/). macs2[121] was used to map position of peaks with FDR cutoff of 0.05. […] All browser tracks and metaprofiles shown were calculated with sequence-depth-normalized, replicate-merged (bigWigMerge[125]) and, for ChIP-seq, input-subtracted data (deeptools bigWigCompare). […]

As to `CNC(=O)COc1cc2cc(Nc3nc(N4CCC(C(=O)N5CCN(CCC(=O)N6CCC(n7nc(N8CCCc9cc(-c%10cnn(C)c%10)c(C(F)F)cc98)c8c7CCN(C(=O)NC)C8)CC6)CC5)CC4)ncc3Cl)cc(OC)c2n(C)c1=O` [TCIP3], the “GFP signal relative to DMSO treatment” value in experiment [1] amounted to 10 times. For the same molecule, in the experiment on H2BK20ac, the H2BK20ac peaks gained was 936 and the H2BK20ac peaks lost is recorded as 4,346.
